Biological target: luciferase (Photinus pyralis, UniProt P08659)
Assay: Reactivity of apyrase ATP-depleted nucleotide stocks with luciferase (background signal)
Assay type: biochemical
Excerpt: ARNs were investigated as a source of background signal. There are two possible sources of background resulting from ARNs: (1) residual ATP contamination from the insufficient purification, and (2) the potential for these nucleotides to be accepted as substrates by luciferase. While ATP contamination can be removed, the kinetics of a nucleotide to react with luciferase is intrinsic to the molecule and thus much more difficult to manipulate. Apyrase was used to deplete nucleotide stocks of ATP in order to compare their reactivity with luciferase. […] However, dCp4A had high levels of ATP contamination.

Sequence of luciferase (P08659 whole entry): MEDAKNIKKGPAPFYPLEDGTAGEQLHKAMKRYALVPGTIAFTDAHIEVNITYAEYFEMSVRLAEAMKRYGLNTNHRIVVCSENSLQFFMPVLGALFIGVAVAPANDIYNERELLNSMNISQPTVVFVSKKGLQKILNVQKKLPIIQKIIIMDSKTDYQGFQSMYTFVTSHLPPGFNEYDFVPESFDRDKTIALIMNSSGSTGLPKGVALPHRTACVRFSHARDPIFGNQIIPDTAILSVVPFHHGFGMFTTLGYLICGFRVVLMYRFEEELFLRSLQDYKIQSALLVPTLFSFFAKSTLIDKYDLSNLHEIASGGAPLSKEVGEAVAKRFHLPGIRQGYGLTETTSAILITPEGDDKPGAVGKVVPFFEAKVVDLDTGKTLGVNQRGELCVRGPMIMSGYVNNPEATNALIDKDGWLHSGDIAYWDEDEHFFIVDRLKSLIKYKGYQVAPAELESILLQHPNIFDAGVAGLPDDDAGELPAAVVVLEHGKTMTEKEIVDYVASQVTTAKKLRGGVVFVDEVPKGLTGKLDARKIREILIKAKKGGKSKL

Compound | activity with luciferase compared with pyrimidine counterparts (dCp4A and dTp4A)
Nc1ncnc2c1ncn2[C@@H]1O[C@H](COP(=O)(O)OP(=O)(O)OP(=O)(O)OP(=O)(O)OC[C@H]2O[C@@H](n3cnc4c(N)ncnc43)C[C@@H]2O)[C@@H](O)[C@H]1O [dAp4A, deoxyadenosine-5′-tetraphosphate-P4-5′-adenosine] | higher activity
Nc1nc2c(ncn2[C@H]2C[C@H](O)[C@@H](COP(=O)(O)OP(=O)(O)OP(=O)(O)OP(=O)(O)OC[C@H]3O[C@@H](n4cnc5c(N)ncnc54)[C@H](O)[C@@H]3O)O2)c(=O)[nH]1 [dGp4A, deoxyguanosine-5′-tetraphosphate-P4-5′-adenosine] | higher activity

Source: US20230416849A1, “METHODS FOR DETECTING VIRAL RNA USING ATP-RELEASING NUCLEOTIDES” (priority 2020, published 2023)
